Test results taken from ChEMBL document CHEMBL2074396, “Functional characterization of the rat multispecific organic anion transporter OAT1 mediating basolateral uptake of anionic drugs in the kidney” (FEBS Lett, 1998).

How the values were obtained:
[1] = target: T1, Solute carrier family 22 member 6 (Rattus norvegicus, UniProt O35956); assay: TP_TRANSPORTER: inhibition of PAH uptake in Xenopus laevis oocytes; assay type: functional, cell-based; details: oocyte
T1 sequence (O35956 whole entry): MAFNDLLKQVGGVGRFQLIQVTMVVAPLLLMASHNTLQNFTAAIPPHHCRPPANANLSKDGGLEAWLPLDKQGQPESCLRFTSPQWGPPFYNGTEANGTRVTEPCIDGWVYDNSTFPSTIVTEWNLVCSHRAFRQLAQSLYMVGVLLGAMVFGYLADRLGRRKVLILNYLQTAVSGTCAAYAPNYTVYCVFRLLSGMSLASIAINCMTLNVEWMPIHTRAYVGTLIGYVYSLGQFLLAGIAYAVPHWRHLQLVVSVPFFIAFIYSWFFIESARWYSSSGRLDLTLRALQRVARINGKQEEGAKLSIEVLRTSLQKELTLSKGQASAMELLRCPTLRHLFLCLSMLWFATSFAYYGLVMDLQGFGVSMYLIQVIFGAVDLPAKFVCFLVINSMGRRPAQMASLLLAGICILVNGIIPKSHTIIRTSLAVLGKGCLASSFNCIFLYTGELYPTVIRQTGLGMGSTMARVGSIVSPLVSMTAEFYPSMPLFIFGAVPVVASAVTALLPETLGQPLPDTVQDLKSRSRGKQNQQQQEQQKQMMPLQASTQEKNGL

[2] = target: T1, Solute carrier family 22 member 6; assay: TP_TRANSPORTER: uptake in Xenopus laevis oocytes; assay type: functional, cell-based; details: oocyte

Activity [1] | Activity [2] | SMILES
inhibitor [+] | substrate [+] | Nc1nc2ncc(CNc3ccc(C(=O)N[C@@H](CCC(=O)O)C(=O)O)cc3)nc2c(=O)[nH]1 [FOLIC ACID]
 | is not a substrate [-] | Cc1c(F)c(N2CCNC(C)C2)cc2c1c(=O)c(C(=O)O)cn2C1CC1 (centres undefined) [GREPAFLOXACIN]
 | is not a substrate [-] | C[C@H]1COc2c(N3CCN(C)CC3)c(F)cc3c(=O)c(C(=O)O)cn1c23.C[C@H]1COc2c(N3CCN(C)CC3)c(F)cc3c(=O)c(C(=O)O)cn1c23.O [LEVOFLOXACIN]
